# Test results from ChEMBL document CHEMBL1201862, “PubChem BioAssay data set” (2004).
#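 Exposure lasted 48 hours, with cells grown in 96-well plates and compounds tested at five concentrations. The concentration for 50% growth inhibition is given as GI50.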 Calls of active or inactive are those of the source. Cut-off read from the data, not from the text of the source: active = GI50 up to about 1.1 µM and inactive = higher.
# Columns and labels:
# Experiment in all cases: NCI anticancer screen, dose series, 48 h
# 786-0 = test system: 786-0
# A498 = test system: A498
# A549 = test system: A549
# ACHN = test system: ACHN
# CAKI-1 = test system: CAKI-1
# CCRF-CEM = test system: CCRF-CEM
# COLO 205 = test system: COLO 205
# DLD-1 = test system: DLD-1
# DMS-114 = test system: DMS-114
# DMS-273 = test system: DMS-273
# EKVX = test system: EKVX
# HCC 2998 = test system: HCC 2998
# HCT-116 = test system: HCT-116
# HCT-15 = test system: HCT-15
# HL-60 = test system: HL-60
# HOP-62 = test system: HOP-62
# HOP-92 = test system: HOP-92
# HT-29 = test system: HT-29
# IGROV-1 = test system: IGROV-1
# K562 = test system: K562
# KM-20L2 = test system: KM-20L2
# KM12 = test system: KM12
# LOX IMVI = test system: LOX IMVI
# LXFL 529 = test system: LXFL 529
# M14 = test system: M14
# M19-MEL = test system: M19-MEL
# MOLT-4 = test system: MOLT-4
# Malme-3M = test system: Malme-3M
# NCI-H226 = test system: NCI-H226
# NCI-H23 = test system: NCI-H23
# NCI-H522 = test system: NCI-H522
# OVCAR-3 = test system: OVCAR-3
# OVCAR-4 = test system: OVCAR-4
# OVCAR-5 = test system: OVCAR-5
# OVCAR-8 = test system: OVCAR-8
# RPMI-8226 = test system: RPMI-8226
# RXF 393 = test system: RXF 393
# SF-268 = test system: SF-268
# SF-295 = test system: SF-295
# SF-539 = test system: SF-539
# SK-MEL-28 = test system: SK-MEL-28
# SK-MEL-2 = test system: SK-MEL-2
# SK-MEL-5 = test system: SK-MEL-5
# SN12C = test system: SN12C
# SNB-19 = test system: SNB-19
# SNB-75 = test system: SNB-75
# SNB-78 = test system: SNB-78
# SW-620 = test system: SW-620
# TK-10 = test system: TK-10
# U-251 = test system: U-251
# UACC-257 = test system: UACC-257
# UACC-62 = test system: UACC-62
# UO-31 = test system: UO-31
# XF498 = test system: XF498
compound,measurement,setting,value
CCN(CC)c1ccc(/N=N/c2ccc(-c3nc4cccnc4o3)cc2)cc1,GI50,786-0,> 100 µM (inactive)
same,GI50,A498,> 100 µM (inactive)
same,GI50,A549,> 100 µM (inactive)
same,GI50,ACHN,> 100 µM (inactive)
same,GI50,CAKI-1,> 100 µM (inactive)
same,GI50,CCRF-CEM,> 100 µM (inactive)
same,GI50,COLO 205,> 100 µM (inactive)
same,GI50,DLD-1,60.3 µM (inactive)
same,GI50,DMS-114,> 100 µM (inactive)
same,GI50,DMS-273,> 100 µM (inactive)
same,GI50,EKVX,> 100 µM (inactive)
same,GI50,HCC 2998,55.2 µM (inactive)
same,GI50,HCT-116,> 100 µM (inactive)
same,GI50,HCT-15,> 100 µM
same,GI50,HL-60,> 100 µM (inactive)
same,GI50,HOP-62,> 100 µM (inactive)
same,GI50,HOP-92,> 100 µM (inactive)
same,GI50,HT-29,> 100 µM (inactive)
same,GI50,IGROV-1,> 100 µM (inactive)
same,GI50,K562,> 100 µM (inactive)
same,GI50,KM-20L2,> 100 µM (inactive)
same,GI50,KM12,> 100 µM (inactive)
same,GI50,LOX IMVI,> 100 µM (inactive)
same,GI50,LXFL 529,> 100 µM (inactive)
same,GI50,M14,> 100 µM (inactive)
same,GI50,M19-MEL,> 100 µM (inactive)
same,GI50,MOLT-4,> 100 µM (inactive)
same,GI50,Malme-3M,> 100 µM (inactive)
same,GI50,NCI-H226,> 100 µM (inactive)
same,GI50,NCI-H23,> 100 µM (inactive)
same,GI50,NCI-H522,66.4 µM (inactive)
same,GI50,OVCAR-3,> 100 µM (inactive)
same,GI50,OVCAR-4,> 100 µM (inactive)
same,GI50,OVCAR-5,> 100 µM (inactive)
same,GI50,OVCAR-8,> 100 µM (inactive)
same,GI50,RPMI-8226,> 100 µM (inactive)
same,GI50,RXF 393,> 100 µM (inactive)
same,GI50,SF-268,> 100 µM (inactive)
same,GI50,SF-295,> 100 µM (inactive)
same,GI50,SF-539,> 100 µM (inactive)
same,GI50,SK-MEL-28,> 100 µM (inactive)
same,GI50,SK-MEL-2,> 100 µM (inactive)
same,GI50,SK-MEL-5,> 100 µM (inactive)
same,GI50,SN12C,> 100 µM (inactive)
same,GI50,SNB-19,> 100 µM (inactive)
same,GI50,SNB-75,> 100 µM (inactive)
same,GI50,SNB-78,> 100 µM (inactive)
same,GI50,SW-620,> 100 µM (inactive)
same,GI50,TK-10,> 100 µM (inactive)
same,GI50,U-251,> 100 µM (inactive)
same,GI50,UACC-257,> 100 µM (inactive)
same,GI50,UACC-62,> 100 µM (inactive)
same,GI50,UO-31,> 100 µM (inactive)
same,GI50,XF498,> 100 µM (inactive)
